For test [1], the system named is DMS 273. Description: Dose response of growth, tumor cell line. It counts as cell-based. Particulars: Homo sapiens; DMS 273, small cell lung cancer; read-out: 50% Loss (50% kill).
Test [2] concerns DMS 114. Description: Dose response of growth, tumor cell line. Particulars: Homo sapiens; DMS 114, small cell lung cancer; read-out: 50% Loss (50% kill). Format: cell-based. The procedure: Indeed, 70% of the cell lines were shown not only to experience precluded growth, but cell death, when exposed to less then 100 μM of the active ingredient.

In the case of `ClCc1ccc2ccc3ccc(CCl)nc3c2n1` [2,9-bis(chloromethyl)-1,10-phenanthroline], the CC50 is more than 100 µM in test [1] and 7.72 µM in test [2].
